Measurements published in US9532984B2, “Therapeutic combination for cancer treatment” (The Translational Genomics Research Institute, priority 2011, dated 2017).

Experiments:
SW48 KRas Kras WT cells = test: Cancer cell growth inhibition (cell proliferation), SW48 Kras WT; type: cell-based; details: Homo sapiens
Description: (§1) The experiments involved a broad testing of multiple concentrations of metformin, phenformin and pioglitazone against fixed concentrations of the autophagy inhibitors. […] Similar tests were carried out in mouse models.

[1] = system: SW48 KRas Kras G12V cells; test: Cancer cell growth inhibition (cell proliferation), SW48 Kras G12V; type: cell-based; details: Homo sapiens
Description: as §1

[2] = system: SW48 KRas Kras G12D cells; test: Cancer cell growth inhibition (cell proliferation), SW48 Kras G12D; type: cell-based; details: Homo sapiens
Description: as §1

[3] = system: BxPC-3 human pancreatic tumor xenograft
Description: BxPC-3 is a human pancreatic cancer cells obtained from the American Type Culture Collection and maintained as recommended. Female mice were inoculated subcutaneously in the right flank with 0.1 ml of a 50% RPMI/50% Matrigel™ (BD Biosciences, Bedford, Mass.) mixture containing a suspension of BxPC-3 human pancreatic tumor cells (approximately 5×10^6 cells/mouse). RPMI, a bicarbonate buffering system, and Matrigel™, a gelatinous protein mixture, support growth of many types of cultured cells including human normal and neoplastic leukocytes.
When tumors reached approximately 135 mg, mice were randomized into treatment groups. Body weights were recorded when the mice were randomized into groups and were weighted twice per week (on Study Days 3 and 7 for each cycle) thereafter in conjunction with tumor measurements. Group 1 mice were treated with vehicle control containing 5% DMA, 10% propylene glycol, 20% PEG 400, and 65% sterile water. Group 2 mice were treated with metformin only. Group 3 mice were treated with autophagy inhibitor in combination with metformin. Treatment began on the day of randomization. Metformin was delivered orally ad libitum in water. The autophagy inhibitor was delivered daily for 12 days in a vehicle of 5% DMA, 10% propylene glycol, 20% PEG 400, and 65% sterile water.

IC50 (SW48 KRas Kras WT cells; no autophagy inhibitor)	IC50 (SW48 KRas Kras WT cells; with fixed Mefloquine 1 μM)	IC50 (SW48 KRas Kras WT cells; with fixed Mefloquine 3 μM)	IC50 (SW48 KRas Kras WT cells; with fixed Quinicrine 1 μM)	IC50 (SW48 KRas Kras WT cells; with fixed Quinicrine 3 μM)	IC50 ([1]; no autophagy inhibitor)	IC50 ([1]; with fixed Mefloquine 1 μM)	IC50 ([1]; with fixed Mefloquine 3 μM)	IC50 ([1]; with fixed Quinicrine 1 μM)	IC50 ([1]; with fixed Quinicrine 3 μM)	IC50 ([2]; no autophagy inhibitor)	IC50 ([2]; with fixed Mefloquine 1 μM)	IC50 ([2]; with fixed Mefloquine 3 μM)	IC50 ([2]; with fixed Quinicrine 1 μM)	IC50 ([2]; with fixed Quinicrine 3 μM)	SMILES	also measured
1000 µM	< 20 µM	600 µM	1100 µM	4800 µM	430 µM	< 20 µM	40 µM	< 20 µM	500 µM	1300 µM	< 20 µM	900 µM	1100 µM	> 10000 µM	CN(C)C(=N)N=C(N)N [Metformin, metformin]	IC50 (SW48 KRas Kras WT cells; with fixed Primaquine 1 μM): 100 µM; IC50 (SW48 KRas Kras WT cells; with fixed Primaquine 3 μM): 2600 µM; IC50 ([1]; with fixed Primaquine 1 μM): 80 µM; IC50 ([1]; with fixed Primaquine 3 μM): 320 µM; IC50 ([2]; with fixed Primaquine 1 μM): 100 µM; IC50 ([2]; with fixed Primaquine 3 μM): > 10000 µM; tumor growth ([3]; after day 18, FIG. 1): continued although at a lower rate than that in Group 1 control; tumor growth rate ([3]; day 8 to about day 18, compared among groups, FIG. 1): lowest tumor growth rate; tumor size regressed ([3]; within about one week, after day 18): ~20 % by weight
7.2 µM	17.2 µM		11 µM	15.8 µM	16.2 µM	1.8 µM		6.5 µM	4.3 µM	10.7 µM	13 µM		23.4 µM	33.1 µM	[H]/N=C(/N)N/C(=N/[H])NCCc1ccccc1 [Phenformin, phenformin]	IC50 (SW48 KRas Kras WT cells; with fixed Chloroquine 1 μM): 23.4 µM; IC50 (SW48 KRas Kras WT cells; with fixed Chloroquine 3 μM): 11.7 µM; IC50 ([1]; with fixed Chloroquine 1 μM): 5.8 µM; IC50 ([1]; with fixed Chloroquine 3 μM): 4.5 µM; IC50 ([2]; with fixed Chloroquine 1 μM): 19.5 µM; IC50 ([2]; with fixed Chloroquine 3 μM): 16.2 µM
154 µM		8.1 µM			> 250 µM		0.4 µM			183 µM		9.7 µM			CCc1ccc(CCOc2ccc(CC3SC(=O)NC3=O)cc2)nc1 (stereo not drawn) [Pioglitizone, pioglitazone]	
